Tested on: DU-145
Assay: Cytotoxicity against human DU-145 cells
Type: functional, cell-based

Work on `CC(=O)O[C@@]12CO[C@@H]1C[C@H](O)[C@@]1(C)C(=O)[C@H](O)C3=C(C)[C@@H](OC(=O)[C@H](O)[C@@H](NC(=O)OC(C)(C)C)c4ccccc4)C[C@@](O)([C@@H](OC(=O)c4ccccc4)[C@H]21)C3(C)C` [DOCETAXEL ANHYDROUS] yielded an IC50 of 5 nM.

Source: ChEMBL document CHEMBL4819119, “Design and evaluation of 1,2,3-dithiazoles and fused 1,2,4-dithiazines as anti-cancer agents” (Bioorg Med Chem Lett, 2021)
